Measurements taken from PMC10600239, “Selective MCL-1 inhibitor ABBV-467 is efficacious in tumor models but is associated with cardiac troponin increases in patients” (Communications Medicine, 2023).

Key:
hERG = hERG (Homo sapiens, UniProt Q12809); experiment: hERG current, in vitro; format: cell-based; settings: read-out: hERG tail current IC50
Procedure: Supplementary Table S6: Maj or findings in safety pharmac ology cardiovascular studies c onduc ted with ABBV- […]
Species/Strain Route of Concentrations Sex and N Results
Administration or Doses per Group […]
Anesthetized IV 1, 3, and Male No effects up to a plasma concentration dog 10 m g/ k gN=4 o f 16 .83 µg/mL on […]
aged 8-12 months • Heart rate
• Systemic vascular resistance
At 67 .23 mg/m L, an increase in heart rate and decrease in systemic vascular
Conscious IV 0, 0.3, 1, and Male No effects on blood pressure, heart dog 3 mg/kg N=5–6a rate, or ECG parameters at any dose beagle (plasma concentration of 6.53 µg/mL at (aged 8-12 months 3-m g/ k g do s e )
ECG, electrocardiogram; IC50, half maximal inhibitory concentration; IV, intravenous; QTcV, QT interval correct ed accor ding to the Van de Water formula. No animals or data were excl uded from analysis . Studies were approved by the animal use committee of Abbvie, Lake County, IL. Healthy dogs, as determined by veterinary physical examination and clinical pathology, were selected for study based on availability without explicit randomization. Conscious dog telemetry utiliz ed a Latin square design to randomize for dose order e ff ects. The same 6 dogs received all d oses. Power analysis has shown a group size of 6 can statistically detect an approximately 20 % alteration in measured parameters w ith α =0.0 5. […]

H929 cells = experiment: Caspase-3/7 activation and viability (DRAQ7) over time by Incucyte; format: cell-based, human
Procedure: Fig. 2 Apoptosis induced by ABBV-467 is mechanism based and induces cell death in MCL-1-dependent cell lines after short target engagement periods. H929 cells were treated with ABBV-467 in the presence or absence of the pan-caspase inhibitor z-VAD-fmk (50 µM) and the impact on caspase-3/7 activation (a), mitochondrial membrane potential (ΔΨm; b), and apoptosis (c) determined. Alternatively, BAK-deficient SKBR3 cells were treated with ABBV-467 for 24 h and the impact on cell viability compared with the parental cell line, determined by CellTiter-Glo. Inset depicts a western blot of BAK and BAX expression in SKBR3 cell variants using GAPDH as a loading control. Each of the 3 proteins were probed on separate blots (d). Data in (a–d) are presented as the mean ± standard error of the mean. H929 and AMO-1 cells were treated with ABBV-467 at the indicated concentrations and the impact on caspase-3/7 activation and viability (DRAQ7-positive) cells determined over time by Incucyte®. Data are presented as the mean ± standard deviation (e). H929 or AMO-1 cells were cultured in media containing 10% human serum and treated with ABBV-467 for the indicated contact times. Cells were subsequently washed 3 times with drug-free media and incubated in drug-free media for the remainder of the 24-h treatment period at 37 °C before cell viability was determined by CellTiter-Glo. Mean EC50 and EC90 values were determined from the resulting dose-response curves from at least 3 independent experiments, each assessed in quadruplicate, and depict the mean ± standard error of the mean. Presented ABBV-467 dose-response curves in H929 and AMO-1 cells were compiled from at least 3 independent experiments (f).

[1] = 4-week (5-dose) IV infusion toxicity study with 4-week recovery
Procedure: range-finding studies, and 4-we ek (5-dose) with recovery GLP studies in rats and dogs. For all studies, test item was
administered once weekly by 30 -minute IV infusion. Standard GLP endpoints were assessed including in- life (body weights,
clinical observations, eye exams), electro cardiograms (dog s only), clinical pathology (hematology, clinical chemistry, and
coagulation) and anatomic pathology (macroscopic and mic roscopic observations and organ weights).
Study design was generally in compliance with FDA Redbook
Guidance IV.C. 3.a. and IV.C.3. b. sections on short-term toxicity studies with rodents and non- rodents, respectively (viz.
Studies were appr oved by the animal use committee of Charles River Laboratories, Mattawan, MI. No animals or
data were excluded from analysis. Healthy dogs, as determined by veterinary physical examination and clinical pathology,
were randomized between dose groups using laboratory information management softw are.

Sequence of hERG (Q12809 whole entry): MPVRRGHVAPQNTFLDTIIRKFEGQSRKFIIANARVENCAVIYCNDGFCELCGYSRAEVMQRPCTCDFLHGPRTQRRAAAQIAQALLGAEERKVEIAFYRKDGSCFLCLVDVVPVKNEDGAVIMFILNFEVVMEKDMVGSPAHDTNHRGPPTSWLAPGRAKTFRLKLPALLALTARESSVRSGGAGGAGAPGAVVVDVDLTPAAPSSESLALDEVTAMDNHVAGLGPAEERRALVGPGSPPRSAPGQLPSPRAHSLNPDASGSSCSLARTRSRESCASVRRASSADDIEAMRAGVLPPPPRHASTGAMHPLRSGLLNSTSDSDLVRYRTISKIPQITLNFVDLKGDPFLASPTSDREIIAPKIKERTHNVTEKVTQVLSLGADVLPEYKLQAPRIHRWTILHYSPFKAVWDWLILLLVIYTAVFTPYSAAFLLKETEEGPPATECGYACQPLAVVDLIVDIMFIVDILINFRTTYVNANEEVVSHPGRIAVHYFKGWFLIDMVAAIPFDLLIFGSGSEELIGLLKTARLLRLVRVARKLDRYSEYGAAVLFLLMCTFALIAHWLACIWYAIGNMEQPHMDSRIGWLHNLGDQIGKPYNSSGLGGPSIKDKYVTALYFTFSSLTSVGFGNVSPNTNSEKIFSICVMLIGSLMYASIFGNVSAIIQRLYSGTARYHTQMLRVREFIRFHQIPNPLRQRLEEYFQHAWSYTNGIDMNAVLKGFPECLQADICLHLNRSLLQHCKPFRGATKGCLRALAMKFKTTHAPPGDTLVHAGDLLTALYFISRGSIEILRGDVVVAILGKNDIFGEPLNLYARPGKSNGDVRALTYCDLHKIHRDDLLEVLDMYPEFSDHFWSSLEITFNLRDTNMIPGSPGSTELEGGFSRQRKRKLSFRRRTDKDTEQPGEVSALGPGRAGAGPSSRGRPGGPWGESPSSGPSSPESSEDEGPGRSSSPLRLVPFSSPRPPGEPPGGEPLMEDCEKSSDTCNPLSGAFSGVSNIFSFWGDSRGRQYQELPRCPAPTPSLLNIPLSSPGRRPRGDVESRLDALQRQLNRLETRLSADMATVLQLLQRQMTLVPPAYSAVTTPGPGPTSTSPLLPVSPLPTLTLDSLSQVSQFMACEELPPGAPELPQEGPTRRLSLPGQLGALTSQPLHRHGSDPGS

Structure (SMILES): Cc1c(Cl)c2c(Cl)c(C)c1-c1c(-c3ccc(F)cc3)sc3ncnc(c13)O[C@@H](C(=O)O)Cc1cc(ccc1OCc1ccnc(-c3ccc(OC[C@H]4COCCO4)cc3)n1)OC[C@@H](CN1CCN(C)CC1)O2 [ABBV-467]
- IC50 (hERG): > 20.3 µg/mL
- Caspase-3/-7 Activation (H929 cells; ABBV-467 0.01 nM, 0 hours): 232.365
- Caspase-3/-7 Activation (H929 cells; ABBV-467 0.01 nM, 1 hours): 224.632
- Caspase-3/-7 Activation (H929 cells; ABBV-467 0.01 nM, 2 hours): 270.553
- Caspase-3/-7 Activation (H929 cells; ABBV-467 0.01 nM, 3 hours): 259.728
- Caspase-3/-7 Activation (H929 cells; ABBV-467 0.01 nM, 4 hours): 277.62
- Caspase-3/-7 Activation (H929 cells; ABBV-467 0.01 nM, 5 hours): 289.07
- Caspase-3/-7 Activation (H929 cells; ABBV-467 0.01 nM, 6 hours): 301.552
- Caspase-3/-7 Activation (H929 cells; ABBV-467 0.01 nM, 7 hours): 311.821
- Caspase-3/-7 Activation (H929 cells; ABBV-467 0.01 nM, 8 hours): 334.669
- Caspase-3/-7 Activation (H929 cells; ABBV-467 0.01 nM, 9 hours): 348.392
- Caspase-3/-7 Activation (H929 cells; ABBV-467 0.01 nM, 10 hours): 365.28
- Caspase-3/-7 Activation (H929 cells; ABBV-467 0.01 nM, 11 hours): 391.805
- Caspase-3/-7 Activation (H929 cells; ABBV-467 0.01 nM, 12 hours): 438.261
- Caspase-3/-7 Activation (H929 cells; ABBV-467 0.01 nM, 13 hours): 454.339
- Caspase-3/-7 Activation (H929 cells; ABBV-467 0.01 nM, 14 hours): 484.741
- Caspase-3/-7 Activation (H929 cells; ABBV-467 0.1 nM, 0 hours): 225.588
- Caspase-3/-7 Activation (H929 cells; ABBV-467 0.1 nM, 1 hours): 235.59
- Caspase-3/-7 Activation (H929 cells; ABBV-467 0.1 nM, 2 hours): 274.692
- Caspase-3/-7 Activation (H929 cells; ABBV-467 0.1 nM, 3 hours): 258.216
- Caspase-3/-7 Activation (H929 cells; ABBV-467 0.1 nM, 4 hours): 255.874
- Caspase-3/-7 Activation (H929 cells; ABBV-467 0.1 nM, 5 hours): 269.765
- Caspase-3/-7 Activation (H929 cells; ABBV-467 0.1 nM, 6 hours): 277.457
- Caspase-3/-7 Activation (H929 cells; ABBV-467 0.1 nM, 7 hours): 313.21
- Caspase-3/-7 Activation (H929 cells; ABBV-467 0.1 nM, 8 hours): 322.526
- Caspase-3/-7 Activation (H929 cells; ABBV-467 0.1 nM, 9 hours): 349.891
- Caspase-3/-7 Activation (H929 cells; ABBV-467 0.1 nM, 10 hours): 382.789
- Caspase-3/-7 Activation (H929 cells; ABBV-467 0.1 nM, 11 hours): 408.8
- Caspase-3/-7 Activation (H929 cells; ABBV-467 0.1 nM, 12 hours): 435.203
- Caspase-3/-7 Activation (H929 cells; ABBV-467 0.1 nM, 13 hours): 463.242
- Caspase-3/-7 Activation (H929 cells; ABBV-467 0.1 nM, 14 hours): 524.814
- Caspase-3/-7 Activation (H929 cells; ABBV-467 1 nM, 0 hours): 207.355
- Caspase-3/-7 Activation (H929 cells; ABBV-467 1 nM, 1 hours): 234.094
- Caspase-3/-7 Activation (H929 cells; ABBV-467 1 nM, 2 hours): 278.959
- Caspase-3/-7 Activation (H929 cells; ABBV-467 1 nM, 3 hours): 292.278
- Caspase-3/-7 Activation (H929 cells; ABBV-467 1 nM, 4 hours): 394.898
- Caspase-3/-7 Activation (H929 cells; ABBV-467 1 nM, 5 hours): 570.705
- Caspase-3/-7 Activation (H929 cells; ABBV-467 1 nM, 6 hours): 716.626
- Caspase-3/-7 Activation (H929 cells; ABBV-467 1 nM, 7 hours): 887.617
- Caspase-3/-7 Activation (H929 cells; ABBV-467 1 nM, 8 hours): 1099.54
- Caspase-3/-7 Activation (H929 cells; ABBV-467 1 nM, 9 hours): 1287.07
- Caspase-3/-7 Activation (H929 cells; ABBV-467 1 nM, 10 hours): 1419.14
- Caspase-3/-7 Activation (H929 cells; ABBV-467 1 nM, 11 hours): 1610.17
- Caspase-3/-7 Activation (H929 cells; ABBV-467 1 nM, 12 hours): 1722.67
- Caspase-3/-7 Activation (H929 cells; ABBV-467 1 nM, 13 hours): 1826.71
- Caspase-3/-7 Activation (H929 cells; ABBV-467 1 nM, 14 hours): 1859.69
- Caspase-3/-7 Activation (H929 cells; ABBV-467 10 nM, 0 hours): 233.175
- Caspase-3/-7 Activation (H929 cells; ABBV-467 10 nM, 1 hours): 264.944
- Caspase-3/-7 Activation (H929 cells; ABBV-467 10 nM, 2 hours): 553.515
- Caspase-3/-7 Activation (H929 cells; ABBV-467 10 nM, 3 hours): 945.842
- Caspase-3/-7 Activation (H929 cells; ABBV-467 10 nM, 4 hours): 1332.17
- Caspase-3/-7 Activation (H929 cells; ABBV-467 10 nM, 5 hours): 1650.46
- Caspase-3/-7 Activation (H929 cells; ABBV-467 10 nM, 6 hours): 1813.36
- Caspase-3/-7 Activation (H929 cells; ABBV-467 10 nM, 7 hours): 2014.88
- Caspase-3/-7 Activation (H929 cells; ABBV-467 10 nM, 8 hours): 2144.69
- Caspase-3/-7 Activation (H929 cells; ABBV-467 10 nM, 9 hours): 2203.21
- Caspase-3/-7 Activation (H929 cells; ABBV-467 10 nM, 10 hours): 2258.19
- Caspase-3/-7 Activation (H929 cells; ABBV-467 10 nM, 11 hours): 2283.58
- Caspase-3/-7 Activation (H929 cells; ABBV-467 10 nM, 12 hours): 2310.22
- Caspase-3/-7 Activation (H929 cells; ABBV-467 10 nM, 13 hours): 2302.82
- Caspase-3/-7 Activation (H929 cells; ABBV-467 10 nM, 14 hours): 2302.28
- Caspase-3/-7 Activation (H929 cells; ABBV-467 100 nM, 0 hours): 208.608
- Caspase-3/-7 Activation (H929 cells; ABBV-467 100 nM, 1 hours): 451.845
- Caspase-3/-7 Activation (H929 cells; ABBV-467 100 nM, 2 hours): 1550.74
- Caspase-3/-7 Activation (H929 cells; ABBV-467 100 nM, 3 hours): 2054.45
- Caspase-3/-7 Activation (H929 cells; ABBV-467 100 nM, 4 hours): 2191.43
- Caspase-3/-7 Activation (H929 cells; ABBV-467 100 nM, 5 hours): 2357.93
- Caspase-3/-7 Activation (H929 cells; ABBV-467 100 nM, 6 hours): 2394.62
- Caspase-3/-7 Activation (H929 cells; ABBV-467 100 nM, 7 hours): 2491.07
- Caspase-3/-7 Activation (H929 cells; ABBV-467 100 nM, 8 hours): 2431.58
- Caspase-3/-7 Activation (H929 cells; ABBV-467 100 nM, 9 hours): 2418.59
- Caspase-3/-7 Activation (H929 cells; ABBV-467 100 nM, 10 hours): 2357.71
- Caspase-3/-7 Activation (H929 cells; ABBV-467 100 nM, 11 hours): 2329.52
- Caspase-3/-7 Activation (H929 cells; ABBV-467 100 nM, 12 hours): 2294.27
- Caspase-3/-7 Activation (H929 cells; ABBV-467 100 nM, 13 hours): 2277.8
- Caspase-3/-7 Activation (H929 cells; ABBV-467 100 nM, 14 hours): 2211.71
- Caspase-3/-7 Activation (H929 cells; ABBV-467 100 nM, 15 hours): 2210.67
- mortality ([1]; beagle dog, 10 mg/kg after 1 or 2 doses (days 3–10)): Mortality
- reversibility of toxicities ([1]; dogs, after a 4-week recovery period): partially or fully reversible
- primary target organs of apoptosis/single-cell necrosis ([1]; dogs, once-weekly dosing): pancreas, liver, gastrointestinal tract, and the hematopoietic system
- impact on cardiovascular endpoints (anatomic, clinical pathology, and/or function) ([1]; multidose GLP toxicity study, dogs): No direct impact
